In patent publication US8696101B2, “Photopolymerizable inkjet black ink, and ink cartridge, inkjet printer and printed material using the ink, and method of preparing the ink” (Ricoh Company, Ltd., priority 2011, dated 2014):

How the values were obtained:
[1] = skin sensitization test (LLNA method), OECD test guide line 429; assay type: in vivo; conditions: for Stimulation Index (SI value): photopolymerizable monomers used in clear inks B to K, SI less than 3 = no problem in skin sensitization
Protocol: The LLNA method is a skin sensitization test specified as OECD test guide line 429, and as shown on page 55 in “Functional Materials” Vol. 25, No. 9 published in September, 2005, the skin sensitization is determined to have no problem when Stimulation Index (SI value) showing a degree of the skin sensitization is less than 3.

[2] = evaluation taken from MSDS; cited from earlier work

γ-butyrolactone methacrylate
Stimulation Index (SI value) [1]: 2.1

Tricyclodecanedimethanoldimethacrylate
Stimulation Index (SI value) [1]: 1.3

Polyethyleneglycol#400 dimethacrylate
Stimulation Index (SI value) [1]: 1.3

Caprolactone-modified dipentaerythritolhexaacrylate
skin sensitization (from MSDS) [2]: Negative skin

Polyethyleneglycol#600 dimethacrylate
Stimulation Index (SI value) [1]: 1.6

Caprolactone-modified neopentylglycolhydroxypivalate ester
Stimulation Index (SI value) [1]: 0.9

C=CC(=O)OCC(C)(C)COC(=O)C=C [Neopentylglycol diacrylate, reference compound]
skin sensitization of photopolymerizable monomer (positive / negative grouping) ([1]; grouping printed in Table 1): Positive

Polyethoxylated tetramethylolmethanetetraacrylate
Stimulation Index (SI value) [1]: 1.7
